Measurements: patent US20240377404A1, “BIOLUMINESCENCE-TRIGGERED PHOTOCATALYTIC ACTIVATION” (Promega Corporation, priority 2023, published 2024)

Columns and labels:
[1] = tested on: Firefly (FFLY) luciferase; assay: Bioluminescence-triggered uncaging of o-nitrobenzyl-F-luciferin, FFLY luminescence readout; type: biochemical
Method: (§1) As depicted in FIG. 18A, bioluminescence-triggered ruthenium-catalyzed excitation of o-nitrobenzyl-caged F-luciferin to liberate F-luciferin, which is then available as a substrate for FFLY luciferase. Synthesis of o-nitrobenzyl-caged F-luciferin is provided in Example 11. […] Residual NanoLuc bioluminescence signal was quenched by treatment with 10 mM competitive extracellular NanoLuc inhibitor before subsequent 5-fold dilution into FFLY detection plate comprising FFLY luciferase, ATP, and Bright-Glo buffer. Bioluminescence was measured before and after dilution into the FFLY detection plate.

[2] = tested on: Firefly (FFLY) luciferase; assay: Bioluminescence-triggered uncaging of p-azidobenzyl-luciferin, FFLY luminescence readout; type: biochemical
Method: as §1, with “FIG. 17A,” for “FIG. 18A,”, “ruthenium-catalyzed reduction” for “ruthenium-catalyzed excitation”, “of p-azidobenzyl-caged luciferin” for “of o-nitrobenzyl-caged F-luciferin”, “liberate luciferin,” for “liberate F-luciferin,”, “as” for “as a”, “for Firefly (FFLY)” for “for FFLY”

[3] = tested on: HeLa cells expressing the HT178-cpNLuc-179 chimera; assay: Bioluminescence-triggered uncaging of azido-quenched fluorophores inside cells; type: cell-based; conditions: 2-20 μM fluorophore, 20 μM fluorofurimazine 45 minutes, with/without Ir-9049 or Ru-8974 (3 μM)
Method: Structure of exemplary azido quenched fluorophores and a cartoon depicting bioluminescent-triggered fluorescence turn-on are included in FIG. 9. Briefly, upon absorbance of light, the excited catalyst engages in energy transfer events with the azido-quenched fluorophore to generate a nitrene through elimination of an N2 group, which restore the fluorophore's fluorescence. HeLa cells were transfected with a DNA construct encoding HT178-cpNLuc-179 that was diluted 50-fold into promoterless carrier DNA, plated in flasks at 2×10^5 cell/mL, and incubated 16-18 hours at 37° C., 5% CO2. The next day, cells were collated, replated in 24-well plates at 2×10^5 cell/mL, and incubated overnight at 37° C., 5% CO2. […] Cells were then washed twice, 15 minutes each, in HBSS buffer to remove excess unreacted catalyst or chloroalkane-biotin.

NanoLuc (Nluc) enzyme = assay: Bioluminescence-triggered release of serotonin from caging Ru complex; type: biochemical; conditions: 200 μM RuBi5, 6 nM NanoLuc, 5 μM fluorofurimazine, 40 minutes
Method: As depicted in FIG. 16A, the amino-signaling molecule serotonin is caged through a coordination reaction with the [Ru^2+(bpy)2]2 core. Upon absorbance of light, the excited ruthenium catalyst induces an oxidation-driven release of serotonin while a water molecule occupies the vacant coordination site.
Here, 6 nM NanoLuc (Nluc) enzyme and 5 μM fluorofurimazine, in the presence and absences of 200 μM RuBi5 (Abcam), were incubated in a white plate for 40 minutes. Reactions were then transferred to a black plate, and 200 μM RuBi5 (caged) added to the control wells.

[4] = 60 nM HT178-cpNLuc-179 tethered/untethered to Ru-8974, 0-10 μM, with/without 20 μM fluorofurimazine, 45 minutes
[5] = fold increase in FFLY luminescence

Compound: O=C(O)[C@H]1CSC(c2nc3cc(F)c(OCc4ccc([N+](=O)[O-])cc4)cc3s2)=N1 [o-nitrobenzyl-F-luciferin, (S)-2-(5-fluoro-6-((4-nitrobenzyl)oxy)benzo[d]thiazol-2-yl)-4,5-dihydrothiazole-4-carboxylic acid]
- FFLY luminescence after uncaging [1, 4]: Bioluminescence and Ru-dependent increase in FFLY dependent bioluminescence
- uncaging efficiency, bioluminescence versus LED [1, 5]: higher efficiency for bioluminescence-driven uncaging compared to LED

Compound: [N-]=[N+]=Nc1ccc(COc2ccc3nc(C4=N[C@@H](C(=O)O)CS4)sc3c2)cc1 [p-azidobenzyl-luciferin, (S)-2-(6-((4-azidobenzyl)oxy)benzo[d]thiazol-2-yl)-4,5-dihydrothiazole-4-carboxylic acid]
- FFLY luminescence after uncaging [2, 4]: Bioluminescence and Ru-dependent increase in FFLY dependent bioluminescence
- uncaging efficiency, bioluminescence versus LED [2, 5]: higher efficiency for bioluminescence-driven uncaging compared to LED

Compound: CC[n+]1c(-c2ccccc2)c2cc(N=[N+]=[N-])ccc2c2ccc(N)cc21.[Br-] [EMA, Ethidium Monoazide Bromide, reference compound]
- fluorescence turn-on upon uncaging [3]: pronounced catalyst dependent increase in fluorescence

Compound: CCN(CC)c1ccc2c(C)c(N=[N+]=N)c(=O)oc2c1 [PBI-8977]
- fluorescence turn-on upon uncaging [3]: pronounced catalyst dependent increase in fluorescence

Compound: [Ru(bpy)2(PMe3)(5HT)]^2+ [RuBi5]
- serotonin emission after bioluminescence exposure (NanoLuc (Nluc) enzyme): bioluminescence-dependent increase in the 340 nm peak emission for serotonin
